In publication PMC12155096 (International Journal of Molecular Sciences, 2025):

How the values were obtained:
human CYP2C9 = human CYP2C9 (Homo sapiens, UniProt P11712)
human CYP2C19 = human CYP2C19 (Homo sapiens, UniProt P33261)
human CYP1A2 = molecular target: T1, human CYP1A2 (Homo sapiens, UniProt P05177)
T1 sequence (P05177 1-516): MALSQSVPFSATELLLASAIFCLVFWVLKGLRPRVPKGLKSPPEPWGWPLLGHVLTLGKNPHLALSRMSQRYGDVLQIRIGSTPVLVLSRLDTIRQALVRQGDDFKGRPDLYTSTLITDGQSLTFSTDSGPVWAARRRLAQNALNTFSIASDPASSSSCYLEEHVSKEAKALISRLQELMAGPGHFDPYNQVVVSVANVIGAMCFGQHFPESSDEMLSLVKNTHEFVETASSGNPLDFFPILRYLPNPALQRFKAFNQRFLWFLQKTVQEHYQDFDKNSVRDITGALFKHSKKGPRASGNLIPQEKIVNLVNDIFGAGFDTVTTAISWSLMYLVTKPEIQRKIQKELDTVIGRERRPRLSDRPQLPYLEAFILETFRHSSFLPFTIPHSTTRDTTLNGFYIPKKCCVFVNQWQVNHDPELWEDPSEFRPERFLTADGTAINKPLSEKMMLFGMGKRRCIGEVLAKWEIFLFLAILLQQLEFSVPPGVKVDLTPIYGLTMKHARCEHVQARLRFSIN

CYP3A4 = CYP3A4 (Homo sapiens, UniProt P08684)
Chain of CYP3A4 (P08684 whole entry): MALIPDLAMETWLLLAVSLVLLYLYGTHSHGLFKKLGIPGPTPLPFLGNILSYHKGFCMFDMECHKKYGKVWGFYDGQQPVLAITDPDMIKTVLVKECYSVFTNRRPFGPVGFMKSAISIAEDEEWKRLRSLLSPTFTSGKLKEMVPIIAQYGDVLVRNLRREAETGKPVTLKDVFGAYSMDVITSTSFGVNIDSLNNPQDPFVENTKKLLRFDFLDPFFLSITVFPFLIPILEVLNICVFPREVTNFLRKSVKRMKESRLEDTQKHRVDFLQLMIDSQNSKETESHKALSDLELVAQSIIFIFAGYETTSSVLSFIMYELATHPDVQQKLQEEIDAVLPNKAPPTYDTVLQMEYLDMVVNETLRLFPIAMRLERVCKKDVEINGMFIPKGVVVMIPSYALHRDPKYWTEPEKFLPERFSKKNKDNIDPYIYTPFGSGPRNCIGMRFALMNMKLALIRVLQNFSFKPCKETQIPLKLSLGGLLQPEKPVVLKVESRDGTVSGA

human CYP2D6 = human CYP2D6 (Homo sapiens, UniProt P10635)
Chain of human CYP2D6 (P10635 whole entry): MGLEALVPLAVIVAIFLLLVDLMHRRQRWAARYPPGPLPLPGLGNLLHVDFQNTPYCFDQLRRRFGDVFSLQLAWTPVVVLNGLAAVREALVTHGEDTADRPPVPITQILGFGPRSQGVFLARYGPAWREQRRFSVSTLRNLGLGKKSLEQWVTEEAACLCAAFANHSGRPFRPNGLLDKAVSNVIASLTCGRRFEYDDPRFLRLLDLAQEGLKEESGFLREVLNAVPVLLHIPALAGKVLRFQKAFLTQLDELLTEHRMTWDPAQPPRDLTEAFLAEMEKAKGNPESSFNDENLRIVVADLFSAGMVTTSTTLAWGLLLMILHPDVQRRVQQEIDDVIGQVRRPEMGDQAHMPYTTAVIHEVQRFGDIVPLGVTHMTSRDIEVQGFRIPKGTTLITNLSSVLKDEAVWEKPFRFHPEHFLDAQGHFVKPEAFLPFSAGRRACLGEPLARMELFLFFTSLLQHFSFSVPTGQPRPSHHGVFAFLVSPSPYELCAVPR

Chain of human CYP2C9 (P11712 whole entry): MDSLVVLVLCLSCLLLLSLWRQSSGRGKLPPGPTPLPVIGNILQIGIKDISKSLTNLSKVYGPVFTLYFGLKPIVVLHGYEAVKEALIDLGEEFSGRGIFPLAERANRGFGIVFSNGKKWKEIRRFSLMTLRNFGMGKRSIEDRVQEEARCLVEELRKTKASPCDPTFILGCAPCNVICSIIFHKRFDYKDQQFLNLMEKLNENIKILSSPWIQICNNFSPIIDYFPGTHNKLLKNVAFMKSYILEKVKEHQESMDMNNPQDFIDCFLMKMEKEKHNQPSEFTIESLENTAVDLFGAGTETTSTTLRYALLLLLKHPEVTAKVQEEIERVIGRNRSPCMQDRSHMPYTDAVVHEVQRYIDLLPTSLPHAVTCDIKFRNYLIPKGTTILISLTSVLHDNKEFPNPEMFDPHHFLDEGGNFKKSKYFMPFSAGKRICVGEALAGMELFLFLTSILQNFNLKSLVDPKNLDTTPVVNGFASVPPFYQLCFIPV
Chain of human CYP2C19 (P33261 whole entry): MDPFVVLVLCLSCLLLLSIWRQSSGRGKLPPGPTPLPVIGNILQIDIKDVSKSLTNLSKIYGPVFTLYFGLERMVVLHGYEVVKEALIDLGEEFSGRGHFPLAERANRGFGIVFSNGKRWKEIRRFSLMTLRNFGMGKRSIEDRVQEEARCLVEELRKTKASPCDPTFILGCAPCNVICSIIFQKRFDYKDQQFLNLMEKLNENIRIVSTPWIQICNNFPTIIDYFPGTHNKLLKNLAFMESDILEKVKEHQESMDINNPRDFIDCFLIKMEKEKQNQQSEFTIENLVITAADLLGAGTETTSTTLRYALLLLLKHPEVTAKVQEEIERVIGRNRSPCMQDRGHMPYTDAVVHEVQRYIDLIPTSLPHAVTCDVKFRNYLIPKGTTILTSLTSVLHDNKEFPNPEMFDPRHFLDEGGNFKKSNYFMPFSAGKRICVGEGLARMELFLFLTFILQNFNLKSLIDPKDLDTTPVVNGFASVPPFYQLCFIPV

| SMILES | AC50 (human CYP2C9) | CYP2C19 AC50 (half-maximal activity concentration) (human CYP2C19) | CYP1A2 AC50 (half-maximal activity concentration) (human CYP1A2) | CYP3A4 AC50 (half-maximal activity concentration) (CYP3A4) | CYP2D6 AC50 (half-maximal activity concentration) (human CYP2D6) | AC50 (CYP3A4) | AC50 (human CYP2D6) | AC50 (human CYP2C19) | AC50 (human CYP1A2) | CYP2C9 AC50 (half-maximal activity concentration) (human CYP2C9) |
| --- | --- | --- | --- | --- | --- | --- | --- | --- | --- | --- |
| Clc1cnc(Oc2ccc(Oc3ncc(Cl)cc3Cl)cc2)c(Cl)c1 | 2.34 µM | Inactive | Inactive | Inconclusive activator | Inactive |  |  |  |  |  |
| C1CC(COCC2CO2)CCC1COCC1CO1 (stereo not shown) | 56.6 µM | Inconclusive inhibitor | Inconclusive inhibitor |  | Inactive | 73.9 µM |  |  |  |  |
| CCCCCCCCCCCCCC[N+](C)(C)Cc1ccccc1.O.O.[Cl-] | 40.7 µM | Inactive | Inactive |  |  | 11.3 µM | 2.01 µM |  |  |  |
| CC1=Nc2ccc3ccccc3c2C1(C)C [1,1,2-Trimethyl-1H-benzo[e]indole] | 51.7 µM |  |  |  |  | 2.84 µM | 54 µM | 10.1 µM | 26.7 µM |  |
| c1ccc(SCCSc2ccccc2)cc1 [1,2-Bis(phenylthio)ethane] | 31.4 µM |  |  |  |  | 8.36 µM | 56.1 µM | 3.06 µM | 29.2 µM |  |
| O=C(O)c1ccc(OCCCOc2ccc(C(=O)O)cc2)cc1 [1,3-Bis(4-carboxyphenoxy)propane] |  | Inactive | Inactive |  |  | 26.4 µM | 8.08 µM |  |  | Inactive |
| C=C(C)C(=O)OCCCCCCOC(=O)C(=C)C [1,6-Hexanediol dimethacrylate] | 37.4 µM |  |  |  | Inactive | 16.9 µM |  | 51.5 µM | 37 µM |  |
| C=C(C)C(=O)OCCCCCCCCCCOC(=O)C(=C)C [1,10-Decanediol dimethacrylate] |  | Inconclusive inhibitor |  |  |  | 46.2 µM | 37 µM |  | 40.1 µM | Inconclusive inhibitor |
| BrCc1cccc(Oc2ccccc2)c1 [1-(Bromomethyl)-3-phenoxybenzene] | 82.9 µM |  |  |  |  | 80 µM | 50.3 µM | 19.9 µM | 41.5 µM |  |
| CCCCCCCCS(=O)(=O)Cl [1-Octanesulfonyl chloride] | 28.7 µM | Inconclusive inhibitor | Inactive |  | Inconclusive inhibitor | 22.9 µM |  |  |  |  |
| O=C1NC(=O)c2cccc3cccc1c23 [1H-Benzo[de]isoquinoline-1,3(2H)-dione] | 33.1 µM | Inconclusive inhibitor |  | Inconclusive activator | Inactive |  |  |  | 2.74 µM |  |
| COC(OC)(C(=O)c1ccccc1)c1ccccc1 [2,2-Dimethoxy-1,2-diphenylethanone] | 22.5 µM |  | Inactive |  |  | 10.2 µM | 34.6 µM | 15.9 µM |  |  |
| O=C(c1ccc(O)c(O)c1)c1ccc(O)cc1O [2,3',4,4'-Tetrahydroxybenzophenone] | 4.22 µM |  |  |  |  | 18.4 µM | 7.5 µM | 33.2 µM | 34.3 µM |  |
| O=C(O)c1cc2ccccc2nc1C(=O)O [2,3-Quinolinedicarboxylic acid] |  | Inactive |  |  | Inactive | 25.2 µM |  |  | 47.9 µM | Inactive |
| O=C(c1ccc(O)cc1)c1ccc(O)cc1O [2,4,4'-Trihydroxybenzophenone] | 3.18 µM | Inactive |  |  |  | 19.4 µM | 33 µM |  | 34.3 µM |  |
| O=S(=O)(O)c1cc(Cl)c(Cl)cc1Cl [2,4,5-Trichlorobenzenesulfonic acid] | 33 µM | Inconclusive inhibitor | Inconclusive inhibitor |  | Inconclusive | 48.3 µM |  |  |  |  |
| CCOC(=O)COc1ccc(Cl)cc1Cl [2,4-D-ethyl ester] | 55.5 µM |  |  |  | Inconclusive inhibitor | 17.1 µM |  | 26.8 µM | 30.8 µM |  |
| O=C([O-])CCCOc1ccc(Cl)cc1Cl.[Na+] [2,4-DB-sodium] | 60.6 µM | Inconclusive inhibitor | Inactive |  | Inactive | 46.2 µM |  |  |  |  |

| SMILES | AC50 (human CYP2C9) | CYP2C19 AC50 (half-maximal activity concentration) (human CYP2C19) | CYP1A2 AC50 (half-maximal activity concentration) (human CYP1A2) | CYP3A4 AC50 (half-maximal activity concentration) (CYP3A4) | CYP2D6 AC50 (half-maximal activity concentration) (human CYP2D6) | AC50 (CYP3A4) | AC50 (human CYP2D6) | AC50 (human CYP2C19) | AC50 (human CYP1A2) | CYP2C9 AC50 (half-maximal activity concentration) (human CYP2C9) |
| --- | --- | --- | --- | --- | --- | --- | --- | --- | --- | --- |
| COc1ccc(C(=O)c2ccc(O)cc2)c(OC)c1 [2,4-Dimethoxy-4'-hydroxy benzophenone] | 0.64 µM |  |  |  | Inconclusive inhibitor | 31.7 µM |  | 6.52 µM | 49.2 µM |  |
| CCCC(C)c1ccccc1O (stereo not shown) [2-(1-Methylbutyl)phenol] | 49 µM |  |  | Inactive | Inactive |  |  | 10.9 µM | 56.6 µM |  |
| c1ccc(CCCc2ccccn2)cc1 [2-(3-Phenylpropyl)pyridine] | 33.1 µM |  |  |  |  | 8.01 µM | 53.2 µM | 7.19 µM | 31.2 µM |  |
| Nc1ccccc1S(=O)(=O)c1ccccc1 [2-(Phenylsulfonyl)aniline] | 8.25 µM |  |  |  | Inactive | 71 µM |  | 17.8 µM | 50.5 µM |  |
| CC(C)c1ccc2sc3ccccc3c(=O)c2c1 [2-(Propan-2-yl)-9H-thioxanthen-9-one] | 15.6 µM |  |  |  |  | 7.71 µM | 27.5 µM | 13.1 µM | 7.68 µM |  |
| NS(=O)(=O)c1ccccc1OC(F)(F)F [2-(Trifluoromethoxy)benzenesulfonamide] | 62.1 µM | Inconclusive inhibitor |  | Inactive | Inactive |  |  |  | 51.9 µM |  |
| CC(=O)c1cc2ccccc2s1 [2-Acetylbenzo[b]thiophene] |  | Inactive |  |  | Inactive | 24.6 µM |  |  | 6.92 µM | Inactive |
| Nc1ccc(Cl)cc1C(=O)c1ccccc1F [2-Amino-5-chloro-2'-fluorobenzophenone] | 16.1 µM |  |  |  | Inactive | 8.75 µM |  | 11.9 µM | 14.4 µM |  |
| CC(C)NC(=O)c1ccccc1N [2-Amino-N-(1-methylethyl)benzamide] |  |  |  |  | Inactive | 35.7 µM |  | 3.36 µM | 51.1 µM | Inactive |
| NC(=O)Nc1nc2ccccc2[nH]1 [2-Benzimidazolylurea] | 60.5 µM |  |  |  |  | 47.5 µM | 34.2 µM | 47.2 µM | 47.2 µM |  |
| Brc1nc2ccccc2s1 [2-Bromobenzothiazole] |  | Inactive |  |  | Inactive | 45.5 µM |  |  | 11.1 µM | Inactive |
| CCCCN1C(=O)c2ccccc2C1=O [2-Butyl-1H-isoindole-1,3(2H)-dione] | 50.6 µM |  |  |  | Inactive | 25.6 µM |  | 26.6 µM | 2.03 µM |  |
| Cc1cc(O)c(Cl)cc1C [2-Chloro-4,5-dimethylphenol] | 34.3 µM |  |  | Inactive | Inactive |  |  | 61.8 µM | 27.7 µM |  |
| CCCCCCCCC(CCCCCC)C(=O)O (stereo not shown) [2-Hexyldecanoic acid] | 26.2 µM |  | Inactive |  | Inactive | 65.1 µM |  | 34.3 µM |  |  |
| CCCCCC=CCC1CC(=O)OC1=O (stereo not shown) [2-Octen-1-ylsuccinic anhydride] |  |  |  |  | Inactive | 31.9 µM |  | 55 µM | 31.9 µM | Inactive |
| O=C(C=Cc1ccccc1)OCCc1ccccc1 [2-Phenylethyl 3-phenylprop-2-enoate] | 25.6 µM |  |  |  | Inactive | 15.7 µM |  | 20.8 µM | 6.35 µM |  |
| O=C(O)c1cc(Br)c(O)c(Br)c1 [3,5-Dibromo-4-hydroxybenzoic acid] | 68.4 µM |  |  |  | Inconclusive inhibitor | 35.7 µM |  | 23.8 µM | 35.7 µM |  |
